Test results taken from patent US8466098B2, “Washing agent having stabilized enzymes” (Henkel AG & Co. KGaA, priority 2007, dated 2013).

Target: T1, Bacillus lentus alkaline protease F49 (Lederbergia lenta, UniProt P29599, A188P/L211D/S3T/V193M/V199I)
T1 sequence (P29599 with tags, fused parts or gaps A188P/V193M/V199I/L211D limits assumed): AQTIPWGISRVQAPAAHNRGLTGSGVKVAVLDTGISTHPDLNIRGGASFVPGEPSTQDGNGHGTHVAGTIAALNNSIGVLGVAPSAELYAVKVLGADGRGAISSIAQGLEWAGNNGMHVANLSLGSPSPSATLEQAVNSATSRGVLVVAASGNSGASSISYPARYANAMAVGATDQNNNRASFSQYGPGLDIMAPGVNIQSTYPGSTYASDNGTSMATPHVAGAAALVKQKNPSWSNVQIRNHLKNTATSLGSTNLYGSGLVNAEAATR
Assay: Residual protease activity in the presence of an inhibitor (AAPFpNA substrate)
Assay type: biochemical
Settings: compound 10 mM final concentration; incubation 5 min at pH 8.6 and 25° C.; batch without compound set at 100%
Description: In parallel reaction batches, the succinyl-alanine-alanine-proline-phenylalanine-para-nitroanilide substrate (AAPFpNA; Bachem L-1400) and 5×10^−9 or 1×10^−8 M of the protease were prepared in 100 mM BrijTM35 Tris buffer, […], 0.1% (w/v). The compounds to be tested (listed below) were added at a final concentration of 10 mM. They were each dissolved in anhydrous DMSO, the effects of DMSO on enzymatic activity having been corrected via the corresponding reference having the same quantity of DMSO but without the relevant compound. Incubation occurred for 5 min at pH 8.6 and 25° C. The corresponding reaction mixture with protease, but without the relevant compound, served as a comparison. The protease activity in these comparison batches was set at 100%.

Row | SMILES | residual protease activity [%]
1 | O=P(O)(OCc1ccccc1)OCc1ccccc1 [V2, dibenzyl phosphate] | 56
2 | CCCCOP(=O)(O)OCCCC [V1, dibutyl phosphate] | 45
